Results on 3 compounds are retold here after US11819499B2, “Single-dose, ready-to-use injectable formulations” (BioSplice Therapeutics, Inc., priority 2016, dated 2023).

Common to all, as to format: physicochemical
Series [1] can be described thus: Solubility of the starting solid by the gravimetric method. The note with it: at RT and at 50° C. in all solvents tested except DMF and DMSO.
A short description of series [2]: Exposure to relative humidity / air followed by XRD.
The nature of series [3]: Drying or heating in a DSC chamber followed by XRD (form conversion). As to the method:
The Form 1 solid was dried at 75° C. under vacuum overnight, and XRD, DSC, and TGA scans were performed. […] However, the DSC scans indicated the absence of endotherm. The loss of the early peak on the DSC scan had no effect on the XRD trace, showing that the wide endotherm between 50-100° C. on DSC scan was due to the free solvent.
The Form 1 solid was heated in a DSC chamber to 305° C. (past the endotherm/exotherm around 280° C.), and then scanned by XRD. […] It can be concluded that the endotherm/exotherm around 280° C. might be due to melting/crystallization events.
The Form 2 solid was heated in a DSC machine to 90° C. (past the wide endotherm between 50-100° C.); to 270° C. (past the endotherm/exotherm around 240° C.); and finally to 330° C. (past the […]). The residual solid was analyzed by XRD. […] The wide endotherm between 50-100° C. might be free solvent or hydrate. […] Thus, the exotherm around 290° C. was a re-crystallization event. According to an XRD and DSC overlay, the behavior of Form 2* was similar to Form 2.
This has been confirmed for Forms 1 and 2.
Form 13 solid was heated in a DSC chamber to 170° C. (past the endotherm between 50-100° C.), and then scanned by XRD. […] It can be concluded that the endotherm between 50-100° C. is due to bonded water.
Form 13 solid was heated in a DSC chamber to 330° C. (past the endotherm/exotherm around 300° C.), and then scanned by XRD. […] It can be concluded that the endotherm/exotherm is due to melting/crystallization events.

A short description of series [4]: Dynamic vapor sorption (DVS) scan. The note with it: at 90% RH. The source says:
The purity of the Form 13 sample was 98.8%; the KF of an undried Form 13 sample was 35.7%.

Series [5] is described as follows: Exposure to relative humidity / air followed by XRD. An excerpt:
FIGS. 15A-15D are scans of Form 1 in the presence of increasing relative humidity (RH), an example of a non-stoichiometric or stoichiometric hydrate of polymorph Form 1 of the compound of Formula (I). FIG. 15A is an x-ray powder diffraction scan of Form 1 exposed to 10% RH as the anhydrous Form 1. FIG. 15B is an x-ray powder diffraction scan of Form 1 exposed to 20% RH as a partial hydrate of Form 1. FIG. 15C is an x-ray powder diffraction scan of Form 1 exposed to 30% RH as a hydrate of Form 1 (≈10-12% water uptake). FIG. 15D is an x-ray powder diffraction scan of Form 1 exposed to 90% RH as a full hydrate of Form 1 (≈17-20% water uptake). […] The hydrate lost its water below 30% RH. […] The crystal lattice of Form 1 expanded when water was sorbed, giving rise to XRD peaks at ˜5, ˜7 and ˜11 degrees while maintaining the main XRD pattern. The hydrates of Form 1 of a compound of Formula (I) (Form 11) were fully reversible, and lost water when exposed to % RH of less than 20%, turning Form 11 to hydrated forms of Form 1 and to the anhydrous Form 1. Solvates 1 and 2 solids were exposed to air overnight, and then analyzed by XRD. After the analysis, the solids were dried at 50° C. under vacuum, and then analyzed by XRD again.
The source holds these as a separate data set.

Series [6] can be described thus: Competitive slurry experiments between polymorph forms (15 forms mixed, 3-5 days, XRD). The note with it: water at RT and 50° C. As to the method:
In order to find out the thermodynamic stability between the different forms, several competitive slurry experiments were carried out. Form 1, Form 2, Form 2*, Form 3, Form 4, Form 4*, Form 4**, Form 5, Form 7, Form 8, Form 9, Form 10, Form 11, Form 11*, and Form 13 (10 mg for each) was mixed and slurried in 2 mL of solvent at both RT and 50° C. The solids were slurried for 3-5 days and then analyzed by XRD.

The nature of series [7]: Reslurry experiments (polymorph screen) in 39 pure and binary solvents at RT and 50° C. for 5 days, XRD of wet and dry samples. As to the method:
Reslurry experiments in various solvents were performed. Approximately 30-80 mg of the starting solid (a non-stoichiometric or stoichiometric hydrate of Form 1 having between 1% and about 20% by weight water) was slurried in 39 different solvents (pure and binary solvents; the ratio of organic solvent/water (V/V) was 95%/5%) at RT and 50° C. for 5 days. Three solvates, one hydrate, and eleven non-solvated forms were identified. […] XRD of both wet and dry samples were scanned (FIG. 12A (dry sample)).
The slurry experiments identified 3 solvated forms from wet samples (Solvates 1, 2, and 3); 2 non-stoichiometric hydrates of Form 1 (Forms 12 and 13); and 11 non-solvated forms (Forms 1-11). In some instances, similar XRD scans with minor differences were obtained. These were considered to be part of the same class (e.g., the same form). For example, XRD scans of Form 2 and Form 2* were similar and were considered to belong to the same class. The solvated forms were obtained from wet sample analysis; after drying, the sample indicated a different XRD.
Solvate 1 was obtained from acetone at RT, and after drying, a low crystallinity solid was generated. Solvate 2 was obtained from acetone (at RT) and acetone/water (at RT), and after drying, Form 4** was generated. Solvate 3 was obtained from EtOH/water at RT, and after drying, Form 2 was generated.

Setting [8] is: reslurry in Acetonitrile/water (5% water), 50° C.
Where [9] appears, read: reslurry in DCM/water (5% water), 50° C.
Setting [10] is: reslurry in DCM/water (5% water), RT.
[11] abbreviates: reslurry in Heptane/water (5% water), 50° C.
Setting [12] is: reslurry in Heptane/water (5% water), RT.
The mark [13] stands for this setting: reslurry in IPAc/water (5% water), 50° C.
[14] abbreviates: reslurry in MA/water (5% water), RT.
The mark [15] stands for this setting: reslurry in MIBK/water (5% water), 50° C.
[16] abbreviates: reslurry in MeOH/water (5% water), 50° C.
Where [17] appears, read: reslurry in MtBE/water (5% water), 50° C.
The mark [18] stands for this setting: reslurry in Toluene/water (5% water), 50° C.
The mark [19] stands for this setting: reslurry in Toluene/water (5% water), RT.
Setting [20] is: reslurry in n-Butanol/water (5% water), 50° C.
[21] abbreviates: reslurry in n-Butanol/water (5% water), RT.
The mark [22] stands for this setting: reslurry in n-Butyl acetate/water (5% water), 50° C.
Setting [23] is: reslurry in n-Butyl acetate/water (5% water), RT.

As for `CC(C)CC(=O)Nc1cncc(-c2ccc3[nH]nc(-c4nc5c(-c6cccc(F)c6)cncc5[nH]4)c3c2)c1` [starting solid, N-(5-(3-(7-(3-fluorophenyl)-3H-imidazo[4,5-c]pyridin-2-yl)-1H-indazol-5-yl)pyridin-3-yl)-3-methylbutanamide], the “Solubility (in words)” value in series [1] is “low solubility”.

In the case of `CC(C)CC(=O)Nc1cncc(-c2ccc3[nH]nc(-c4nc5c(-c6cccc(F)c6)cncc5[nH]4)c3c2)c1` [Form 1, N-(5-(3-(7-(3-fluorophenyl)-3H-imidazo[4,5-c]pyridin-2-yl)-1H-indazol-5-yl)pyridin-3-yl)-3-methylbutanamide], in series [2], the “RH above which Form 1 tended to convert to hydrate of Form 1 (Form 13)” value was “above 4050%”. Also, the XRD after drying entry in series [3] (dried at 75° C. under vacuum overnight) was “no change”. The “form after heating (XRD)” value in series [3] (heated in a DSC chamber to 305° C.) is “converted to Form 9”. Moreover, the “form when heated to just before melting” value in series [3] (heated to just before melting at 364° C.) was “convert to Form 9”. In addition, the “water absorption (DVS scan)” value in series [4] is reported as 17%. In addition, the water uptake in series [5] (exposed to 30% RH (FIG. 15C), hydrate of Form 1) is listed as 10-12%; in series [5] (exposed to 90% RH (FIG. 15D), full hydrate of Form 1), 17-20%. In series [5] (exposed to air), the “form when exposed to air” value was “converts to Form 13”.

Turning to `CC(C)CC(=O)Nc1cncc(-c2ccc3[nH]nc(-c4nc5c(-c6cccc(F)c6)cncc5[nH]4)c3c2)c1` [Form 13, N-(5-(3-(7-(3-fluorophenyl)-3H-imidazo[4,5-c]pyridin-2-yl)-1H-indazol-5-yl)pyridin-3-yl)-3-methylbutanamide], the results for the “form after heating (XRD)” value in series [3] (heated in a DSC chamber to 170° C.) and in series [3] (heated to 330° C.) were “converted to Form 1” and “converted to Form 9”, respectively. In addition, the form upon drying result in series [3] (upon drying) is given as “converted to Form 1”. Further, in series [6], the “thermodynamic stability between forms (competitive slurry)” value was “most stable”. For the same compound, the “water absorption (DVS scan)” value in series [4] is 17%. Besides, the “Dry (form by XRD)” value in series [7] (setting [8]) is reported as “Form 13”; in series [7] (reslurry in DCM, 50° C.), “Form 13”; in series [7] (setting [9]) it was “Form 1”; in series [7] (setting [10]), “Form 1”; in series [7] (reslurry in Heptane, 50° C.), “Form 13”; in series [7] (setting [11]), “Form 1”. Besides, the “Dry (form by XRD)” value was “Form 12” in series [7] (setting [12]); “Form 13” in series [7] (setting [13]); “Form 1” in series [7] (setting [14]); “Form 1” in series [7] (setting [15]); “Form 1” in series [7] (reslurry in MeOH, RT); “Form 13” in series [7] (setting [16]). Moreover, the “Dry (form by XRD)” value is “Form 13” in series [7] (setting [17]); “Form 13” in series [7] (setting [18]); “Form 1” in series [7] (setting [19]); “Form 1” in series [7] (setting [20]); “Form 13” in series [7] (setting [21]); “Form 1” in series [7] (setting [22]). For the same compound, the “Dry (form by XRD)” value in series [7] (setting [23]) is given as “Form 12”; in series [7] (reslurry in water, 50° C.) it was “Form 13”; in series [7] (reslurry in water, RT), “Form 1”. For the same compound, the “Wet (form by XRD)” value in series [7] (setting [8]) is “Form 13”; in series [7] (reslurry in DCM, 50° C.), “Form 13”; in series [7] (setting [9]), “Form 13”; in series [7] (setting [10]), “Form 13”; in series [7] (reslurry in Heptane, 50° C.), “Form 13”; in series [7] (setting [11]), “Form 13”. The “Wet (form by XRD)” value in series [7] (setting [12]) was “Form 13”; in series [7] (setting [13]), “Form 13”; in series [7] (setting [14]), “Form 13”; in series [7] (setting [15]), “Form 13”; in series [7] (reslurry in MeOH, RT), “Form 13”; in series [7] (setting [16]), “Form 13”. In addition, the “Wet (form by XRD)” value in series [7] (setting [17]), in series [7] (setting [18]), in series [7] (setting [19]), in series [7] (setting [20]), in series [7] (setting [21]) and in series [7] (setting [22]) was “Form 13” in each case. For the same compound, the “Wet (form by XRD)” value is given as “Form 13” in series [7] (setting [23]); “Form 13” in series [7] (reslurry in water, 50° C.); “Form 13” in series [7] (reslurry in water, RT). Further, the “RH below which the hydrate lost its water” value in series [5] (relative humidity) is given as “below 30%”.
